According to patent EP0088849A1, “Levorotatory compounds of N-substituted benzenesulphone amides, process for their preparation and pharmaceutical compositions containing them” (CHOAY S.A., priority 1982, dated 1983):

Tested on: chiens Beagle
Experiment: Anti-emetic test: apomorphine-induced vomiting in Beagle dogs
Type: in vivo
Conditions: for Diminution par rapport au témoin (%): percentage decrease in number of vomitings vs control trial, compound about 1 mg/kg intramuscular at time 0, apomorphine about 100 µg/kg subcutaneous 30 minutes later
Description: L'étude a été effectuée sur des chiens Beagle provenant de l'élevage du Centre de RecherchesBiologiques de Baugy.
On a tout d'abord effectué un essai témoin, puis six jours après, on a testé notamment les quatre composés mentionnés ci-dessus.
Pendant l'essai témoin, les animaux reçoivent 100 µg/kg d'apomorphine, qui provoque des vomissements,
Lorsqu'on teste les produits conformes à l'invention et le racémique du composé n° 1 135, les animaux reçoivent : • - à l'instant 0, une injection intra-musculaire du composé étudié à raison d'environ 1 mg/kg • - 30 minutes plus tard, une injection sous- cutanée d'apomorphine est effectuée, d'environ 100 µg/kg.
Les résultats donnés ci-après correspondent aux pourcentages de diminution du nombre de vomissements par rapport à l'essai témoin.

Row | Compound | Diminution par rapport au témoin (%) | nombre de vomissements / activité (result in words, same test (about 1 mg/kg i.m., apomorphine about 100 µg/kg s.c. 30 min later))
1 | CCN1CCC[C@H]1CNS(=O)(=O)c1cc(Cl)c(OC)cc1OC [Composé n° 1 138] | 20 | –
2 | CCN1CCCCCC1CNS(=O)(=O)c1cc(Cl)c(N)cc1OC (racemic) [Composé n° 1 149, amino-4 chloro-5 méthoxy-2 N-(N-éthyl méthyl-2 azépinyl) benzènesulfonamide] | 60 | –
3 | CCN1CCCC1CNS(=O)(=O)c1cc(Cl)c(N)cc1OC (racemic) [racémique du lévo-gyre n° 1 135, reference compound] | 10 | –
4 | CCN1CCC[C@H]1CNS(=O)(=O)c1cc(Cl)c(N)cc1OC [Composé n° 1 135] | 50 | beaucoup plus actif que le racémique correspondant
